Source: patent publication US12503452B2 (Curza Global, LLC, priority 2019, dated 2025)
Read-outs that look alike come from different tables or passages of the source.

Columns and labels:
[1] = molecular target: Rabbit Reticulocyte Lysate (eukaryotic protein synthesis); test: Rabbit reticulocyte lysate luciferase assay (inhibition of eukaryotic protein synthesis); assay type: biochemical; conditions: read-out: Rabbit reticulocyte IC50 (μM/% inhib.)
Description: Inhibition of eukaryotic protein synthesis was determined using the Rabbit Reticulocyte Lysate System, Nuclease-Treated from Promega (catalog #L-4960) with slight modifications to the manufacturer's protocol. Compounds were serial diluted in 0.5 mL microcentrifuge tubes by mixing and transferring 50 μL from the highest concentration to 50 μL of water, mixing and transferring 50 μL of this 2-fold dilution to 50 μL of water. This mixing and transferring was repeated so that there are a total of 8 tubes with serial dilutions of compound at 10× the desired screening concentration that are ultimately diluted to 1× by the addition of rabbit reticulocyte luciferase synthesis mixture. Serial dilutions of compounds were added ([…]) to wells in a black round bottom 96-well plate. Water (2.5 μL) was used as a “no inhibitor” control in 4 wells/plate. No RNA control reaction mixture ([…]; see below) was used as a control in 4 wells/plate for background luminescence. Rabbit reticulocyte luciferase synthesis mixture (22.5 μL; see below) was added to wells with compounds or water mixture and incubated at 30° C. for 90 minutes. Luciferase assay reagent (25 μL) was added with luminescence measured using a BioTek Synergy HTX plate reader. % Inhibition was determined relative to no inhibitor controls.
Rabbit reticulocyte luciferase synthesis mixture:
• 1,000 μL rabbit reticulocyte lysate • 5.7 μL Luciferase Control RNA (1 μg/μL) • 26 μL complete amino acid mixture • 395 μL water No RNA Control • 70 μL rabbit reticulocyte lysate • 2 μL complete amino acid mixture • 28 μL water Minimum Inhibitory Concentration (MIC)

[2] = system: E. coli S30 extract (bacterial protein synthesis); test: E. coli S30 extract coupled transcription-translation luciferase assay (inhibition of bacterial protein synthesis); assay type: biochemical; conditions: read-out: S30 IC50 (μM/% inhib.)
Description: E. coli S30 extract: Inhibition of bacterial protein synthesis was determined using the E. coli S30 Extract System for Circular DNA (Promega catalog #L-2010) and Luciferase Assay Reagent (Promega catalog #E1500) with slight modifications to a published protocol. Fyfe, C., Sutcliffe, J. A. and Grossman, T. H. (2012) “Development and characterization of a Pseudomonas aeruginosa in vitro coupled transcription-translation assay system for evaluation of translation inhibitors” J. Microbiol. Methods 90(3), 256-261.
Compounds were serial diluted in 0.5 mL microcentrifuge tubes by mixing and transferring 50 μL from the highest concentration to 50 μL of water, mixing and transferring 50 μL of this 2-fold dilution to 50 μL of water. This mixing and transferring was repeated so that there are a total of 8 tubes with serial dilutions of compound at 10× the desired screening concentration that are ultimately diluted to 1× by the addition of S30 luciferase synthesis mixture. Serial dilutions of compounds were added (2 μL) to wells in a black round bottom 96-well plate. Water (2 μL) was used as a “no inhibitor” control in 4 wells/plate. No DNA control reaction mixture (20 μL; see below) was used as a control in 4 wells/plate for background luminescence. S30 luciferase synthesis mixture (18 μL; see below) was added to wells with compounds or water mixture and incubated at 37° C. for 1 hour. Reactions were stopped by transferring to 4° C. refrigerator for 5 minutes then 25 μL of luciferase activity mix was added. Luminescence was measured using a BioTek Synergy HTX plate reader. % Inhibition was determined relative to no inhibitor controls.
S30 luciferase synthesis mixture:
• 445 μL S30 extract, circular • 712 μL S30 Premix without amino acids • 4.45 μL pBESTluc™ DNA (1 μg/μL) • 78 μL complete amino acid mixture • 267 μL water No DNA control: • 20 μL S30 extract, circular • 32 μL S30 Premix without amino acids • 7 μL complete amino acid mixture • 21 μL water Rabbit Reticulocyte lysate

[3] = class by IC50 or % inhibition @ 1 μM

| SMILES | IC50 [1, 3] [µM] | IC50 [2, 3] [µM] | IC50 ([1]; % inhibition @ 1 μM) [µM] | IC50 ([2]; % inhibition @ 1 μM) [µM] |
| --- | --- | --- | --- | --- |
| CC1CN(Cc2ccc(-n3ccc(NC(=O)N4CCN(C(=O)[C@@](C)(N)CO)CC4)nc3=O)cc2)CCC1N (stereo in doubt) [Compound 224] | > 1 | < 0.5 |  |  |
| CC1(N)CCN(CCc2ccc(-n3ccc(NC(=O)N4CCN(C(=O)C(C)(N)CO)CC4)nc3=O)cc2)CC1 (stereo in doubt) [Compound 361] |  |  | > 1 | > 1 |
| CC(C)(N)C(=O)N1CCN(C(=O)Nc2ccn(-c3ccc(CCN4CCC(CN)CC4)cc3)c(=O)n2)CC1 [Compound 1] | > 1 | 0.5 to 1 |  |  |
| CC(C)(N)C(=O)N1CCN(C(=O)Nc2ccn(-c3cccc(CCN4CCCC(CN)C4)c3)c(=O)n2)CC1 (stereo not shown) [Compound 3] |  | > 1 |  |  |
| CNC1CCN(CCc2cccc(-n3ccc(NC(=O)N4CCN(C(=O)C(C)(C)N)CC4)nc3=O)c2)CC1 [Compound 4] |  | > 1 |  |  |
| CC(C)(N)C(=O)N1CCN(C(=O)Nc2ccn(-c3cccc(CCN4CC[C@@H](N)C4)c3)c(=O)n2)CC1 [Compound 5] | > 1 | > 1 |  |  |
| CC(C)(N)C(=O)N1CCN(C(=O)Nc2ccn(-c3cccc(CCN4CC[C@H](N)C4)c3)c(=O)n2)CC1 [Compound 6] | > 1 | > 1 |  |  |
| CC(C)(N)C(=O)N1CCN(C(=O)Nc2ccn(-c3ccc(CCN4CC[C@H](N)C4)cc3)c(=O)n2)CC1 [Compound 7] |  | > 1 |  |  |
| CC(C)(N)C(=O)N1CCN(C(=O)Nc2ccn(-c3ccc(CCN4CCC[C@H](N)C4)cc3)c(=O)n2)CC1 [Compound 9] |  | > 1 |  |  |
| CC(C)(N)C(=O)N1CCN(C(=O)Nc2ccn(-c3ccc(CCN4CCCC(CN)C4)cc3)c(=O)n2)CC1 (stereo not shown) [Compound 10] | > 1 | < 0.5 |  |  |
| C[C@](N)(CO)C(=O)N1CCN(C(=O)Nc2ccn(-c3ccc(CCN4CC[C@@H](N)C4)cc3)c(=O)n2)CC1 [Compound 11] | > 1 | 0.5 to 1 |  |  |
| C[C@](N)(CO)C(=O)N1CCN(C(=O)Nc2ccn(-c3ccc(CCN4CC[C@H](N)C4)cc3)c(=O)n2)CC1 [Compound 13] | > 1 | > 1 |  |  |
| CC(C)(N)C(=O)N1CCN(C(=O)Nc2ccn(-c3ccc(CCN4CC(N)C4)cc3)c(=O)n2)CC1 [Compound 16] | > 1 | > 1 |  |  |
| CC(C)(N)C(=O)N1CCN(C(=O)Nc2ccn(-c3ccc(CCN4CC[C@H](CN)C4)cc3)c(=O)n2)CC1 [Compound 17] | > 1 | < 0.5 |  |  |
| CC(C)(N)C(=O)N1CCN(C(=O)Nc2ccn(-c3ccc(CCN4CC[C@@H](CN)C4)cc3)c(=O)n2)CC1 [Compound 18] | > 1 | < 0.5 |  |  |
| CN(C)C1CCCN(CCc2ccc(-n3ccc(NC(=O)N4CCN(C(=O)C(C)(C)N)CC4)nc3=O)cc2)CC1 (stereo not shown) [Compound 36] | > 1 | > 1 |  |  |
| CC(C)(N)C(=O)N1CCN(C(=O)Nc2ccn(-c3ccc(C(C)(C)CN4CCCC(N)CC4)cc3)c(=O)n2)CC1 (stereo not shown) [Compound 37] | > 1 | > 1 |  |  |
| CC(C)(N)C(=O)N1CCN(C(=O)Nc2ccn(-c3ccc(C(C)(C)CN4CC[C@@H](CN)C4)cc3)c(=O)n2)CC1 [Compound 38] | > 1 | > 1 |  |  |
| CC(C)(N)C(=O)N1CCN(C(=O)Nc2ccn(-c3ccc(C(C)(C)CN4CC[C@H](CN)C4)cc3)c(=O)n2)CC1 [Compound 39] | > 1 | > 1 |  |  |
| CC(C)(N)C(=O)N1CCN(C(=O)Nc2ccn(-c3ccc(C4(CN5CCCC(N)CC5)CC4)cc3)c(=O)n2)CC1 (stereo not shown) [Compound 40] | > 1 | > 1 |  |  |
| NCC1CCCN(C(=O)Nc2ccn(-c3ccc(CN4CCC(N)CC4)cc3)c(=O)n2)C1 (stereo not shown) [Compound 46] | > 1 | > 1 |  |  |
| NC1CCN(Cc2ccc(-n3ccc(NC(=O)N4CCC[C@@H](N)C4)nc3=O)cc2)CC1 [Compound 47] | > 1 | > 1 |  |  |

| SMILES | IC50 [1, 3] [µM] | IC50 [2, 3] [µM] | IC50 ([1]; % inhibition @ 1 μM) [µM] | IC50 ([2]; % inhibition @ 1 μM) [µM] |
| --- | --- | --- | --- | --- |
| NC1CCN(Cc2ccc(-n3ccc(NC(=O)N4CCC[C@H](N)C4)nc3=O)cc2)CC1 [Compound 48] | > 1 | > 1 |  |  |
| NC1CCN(Cc2ccc(-n3ccc(NC(=O)N4C[C@H]5CNC[C@H]5C4)nc3=O)cc2)CC1 [Compound 50] | > 1 | > 1 |  |  |
| NCC1CN(C(=O)Nc2ccn(-c3ccc(CN4CCC(N)CC4)cc3)c(=O)n2)CCO1 (stereo not shown) [Compound 51] | > 1 | > 1 |  |  |
| NC[C@H]1CCN(C(=O)Nc2ccn(-c3ccc(CN4CCC(N)CC4)cc3)c(=O)n2)C1 [Compound 52] | > 1 | > 1 |  |  |
| NC[C@@H]1CCN(C(=O)Nc2ccn(-c3ccc(CN4CCC(N)CC4)cc3)c(=O)n2)C1 [Compound 53] | > 1 | > 1 |  |  |
| NC1CCN(Cc2ccc(-n3ccc(NC(=O)N4CCCNCC4)nc3=O)cc2)CC1 [Compound 54] | > 1 | > 1 |  |  |
| CCC1CN(C(=O)C(C)(C)N)CCN1C(=O)Nc1ccn(-c2ccc(CN3CCC(N)CC3)cc2)c(=O)n1 (stereo not shown) [Compound 55] | > 1 | 0.5 to 1 |  |  |
| C[C@@H]1CN(C(=O)C(C)(C)N)[C@@H](C)CN1C(=O)Nc1ccn(-c2ccc(CN3CCC(N)CC3)cc2)c(=O)n1 [Compound 60] | > 1 |  |  |  |
| COC(=O)[C@@H]1CN(C(=O)C(C)(C)N)CCN1C(=O)Nc1ccn(-c2ccc(CN3CCC(N)CC3)cc2)c(=O)n1 [Compound 63] | > 1 | 0.5 to 1 |  |  |
| CC[C@H]1CN(C(=O)Nc2ccn(-c3ccc(CN4CCC(N)CC4)cc3)c(=O)n2)CCN1C(=O)C(C)(C)N [Compound 66] | > 1 | > 1 |  |  |
| CC[C@@H]1CN(C(=O)Nc2ccn(-c3ccc(CN4CCC(N)CC4)cc3)c(=O)n2)CCN1C(=O)C(C)(C)N [Compound 67] | > 1 | > 1 |  |  |
| C[C@H]1CN(C(=O)Nc2ccn(-c3ccc(CN4CCC(N)CC4)cc3)c(=O)n2)CCN1C(=O)C(C)(C)N [Compound 72] | > 1 | 0.5 to 1 |  |  |
| CC(C)(N)C(=O)N1CCN(C(=O)Nc2ccn(-c3ccc(CN4CCC(N)CC4)cc3)c(=O)n2)CC1(C)C [Compound 73] | > 1 |  |  |  |
| CC(C)(N)C(=O)N1CCN(C(=O)Nc2ccn(-c3ccc(CN4CCC(N)CC4)cc3)c(=O)n2)CC1c1ccccc1 (stereo not shown) [Compound 75] | > 1 |  |  |  |
| C[C@@H]1CN(C(=O)C(C)(C)N)C[C@H](C)N1C(=O)Nc1ccn(-c2ccc(CN3CCC(N)CC3)cc2)c(=O)n1 [Compound 76] | > 1 |  |  |  |
| CC(C)[C@H]1CN(C(=O)C(C)(C)N)CCN1C(=O)Nc1ccn(-c2ccc(CN3CCC(N)CC3)cc2)c(=O)n1 [Compound 77] | > 1 | > 1 |  |  |
| CCC1CN(C(=O)Nc2ccn(-c3ccc(CN4CCC(N)CC4)cc3)c(=O)n2)CCN1C(=O)C(C)(C)N (stereo not shown) [Compound 78] | > 1 | > 1 |  |  |
| CC(C)(N)C(=O)N1C[C@@H]2CC1CN2C(=O)Nc1ccn(-c2ccc(CN3CCC(N)CC3)cc2)c(=O)n1 [Compound 80] | > 1 | 0.5 to 1 |  |  |
| CC(C)(N)C(=O)N1CCN(C(=O)Nc2ccn(-c3ccc(CN4CCC(N)CC4)cc3)c(=O)n2)C[C@H]1C(=O)O [Compound 81] | > 1 | > 1 |  |  |
| CC[C@H]1CN(C(=O)C(C)(C)N)CCN1C(=O)Nc1ccn(-c2ccc(CN3CCC(N)CC3)cc2)c(=O)n1 [Compound 83] | > 1 | > 1 |  |  |
| CC[C@@H]1CN(C(=O)C(C)(C)N)CCN1C(=O)Nc1ccn(-c2ccc(CN3CCC(N)CC3)cc2)c(=O)n1 [Compound 84] | > 1 | > 1 |  |  |
| CC(C)(N)CC(=O)N1CCN(C(=O)Nc2ccn(-c3ccc(CCN4CCC(N)CC4)cc3)c(=O)n2)CC1 [Compound 197] |  | > 1 |  |  |
